Here are results for seven compounds from US12042473B2, “Compounds and combinations thereof for treating neurological and psychiatric conditions” (priority 2022, dated 2024).

Structures can show the parent of a compound that is named as a salt. Where two headings read alike, the source gives them in different places.

For series [1] the following is noted: human, in vivo.
A short description of series [2]: Co-administration of paroxetine and the subject combination in healthy volunteers (Example 3). The text has this: Co-administration of the SSRI paroxetine and the subject combination was studied in 29 healthy volunteers.
Series [3] can be described thus: Pharmacokinetics of the subject combination in moderate renal impairment (Example 1). Particulars: moderate renal impairment (GFR 30-60 mL/min).
The nature of series [4]: Food effect on pharmacokinetics of the subject combination. Particulars: subject combination administered with food. Format: in vivo, human.
Series [5] can be described thus: Pharmacokinetics after administration of the subject combination (steady state). The following applies: for apparent elimination half-life: bupropion metabolites.
Series [6] is described as follows: Pharmacokinetics of the subject combination in CYP2D6 poor metabolizers (Example 2). The text has this:
Approximately 7 to 10% of Caucasians and 3 to 8% of African Americans lack the capacity to metabolize CYP2D6 substrates and are classified as poor metabolizers.

The conditions of series [7]: cited from earlier work; for incidence of sedation (MOAA/S score <5): treatment-resistant depression.

In the case of `CC(NC(C)(C)C)C(=O)c1cccc(Cl)c1.Cl` (racemic) [bupropion, (±)-1-(3-chlorophenyl)-2-[(1,1-dimethylethyl)amino]-1-propanone hydrochloride], in series [1], the “increase in exposure versus matched controls with normal renal function” value was “approximately 2 fold” and the “reduction in clearance versus matched controls with normal renal function” value is recorded as 50%. Moreover, the “increase in overall exposure when paroxetine is co-administered with the subject combination” value in series [2] (human, in vivo) is reported as “no effect”.
On to `COc1ccc2c(c1)[C@]13CCCC[C@@H]1[C@H](C2)N(C)CC3` [dextromethorphan, morphinan, 3-methoxy-17-methyl-, (9α, 13α, 14α), hydrobromide monohydrate], for which, in series [2] (healthy volunteers), the “increase in overall exposure when paroxetine is co-administered with the subject combination” value amounted to 2.5 fold. In addition, in series [3], the “increase in exposure versus matched controls with normal renal function” value is listed as “approximately 2 fold” and the “reduction in clearance versus matched controls with normal renal function” value was 50%. Further, the “decrease in AUC0-12 with food” value in series [4] was determined as 14%. In addition, the “increase in mean elimination half-life versus dextromethorphan given without bupropion” value in series [5] (8 days of subject combination, extensive metabolizers) is reported as “approximately 3 fold”. Moreover, the “median Tmax” value in series [5] (after administration of the subject combination) is “about 3 hours”. The “dose proportionality of AUC and Cmax at steady state” value in series [5] (co-administered with bupropion, dextromethorphan 30 to 60 mg, bupropion 75 to 150 mg) is “nonlinear pharmacokinetics”. Also, the mean elimination half-life in series [5] (human, in vivo) was found to be 22 h. In series [6] (12 poor metabolizers in efficacy trials), the “steady state plasma concentrations compared with non-poor metabolizers” value is “generally higher”. Also, in series [6] (CYP2D6 poor metabolizers), the “increase in AUC0-12 compared to extensive metabolizers” value is ~3.4 fold and the “increase in Cmax compared to extensive metabolizers” value is reported as ~3 fold.
Regarding `CC(NC(C)(C)C)C(O)c1cccc(Cl)c1` (stereo not shown) [erythrohydroxybupropion], the apparent elimination half-life in series [5] was ~44 h.
Turning to `CN[C@]1(c2ccccc2Cl)CCCCC1=O` [esketamine, Esketamine], the “incidence of sedation (MOAA/S score <5)” value in series [7] (56 mg + oral AD, patients <65 years, fixed-dose study) is recorded as 50%; in series [7] (84 mg + oral AD, patients <65 years, fixed-dose study) it was 61%; in series [7] (28 to 84 mg + oral AD, patients ≥65 years, flexible-dose study), 49%. Moreover, in series [7] (plus oral antidepressant, adults with MDD with acute suicidal ideation or behavior), the “incidence of sedation (MOAA/S score<5) compared to placebo plus oral antidepressant” value is given as “higher incidence of sedation”.
Consider `C[C@H]1NC(C)(C)CO[C@]1(O)c1cccc(Cl)c1` [hydroxybupropion], for which, in series [5], the apparent elimination half-life entry is “approximately 35 hours”.
On to `Fc1ccc([C@@H]2CCNC[C@H]2COc2ccc3c(c2)OCO3)cc1` [paroxetine], for which the “increase in overall exposure of paroxetine when co-administered with the subject combination” value in series [2] (human, in vivo) turned out to be 1.2 fold.
Consider `C[C@H](NC(C)(C)C)[C@@H](O)c1cccc(Cl)c1` [threohydroxybupropion], for which the apparent elimination half-life in series [5] was ~33 h.
